Assay results taken from US12606541B2, “PPARg modulators and methods of use” (Eisai R&D Management Co., Ltd., priority 2020, dated 2026).
Where two headings read alike, the source gives them in different places.

Columns and labels:
[1] = target: T1, His6-TEV-PPARγ-(234-505) (Homo sapiens, UniProt P37231); test: TR-FRET Assay to Measure Co-R Peptide Recruitment to PPARγ; assay type: biochemical; conditions: Co-R peptide (SMRT-ID2) recruitment; top final concentration 20 μM; read-out: TR-FRET i-Ag; AC50
T1 construct: The His6-TEV-PPARγ-(234-505) protein for assay was expressed and purified; TEV cleavage site (N); made in house
T1 sequence (P37231 234-505): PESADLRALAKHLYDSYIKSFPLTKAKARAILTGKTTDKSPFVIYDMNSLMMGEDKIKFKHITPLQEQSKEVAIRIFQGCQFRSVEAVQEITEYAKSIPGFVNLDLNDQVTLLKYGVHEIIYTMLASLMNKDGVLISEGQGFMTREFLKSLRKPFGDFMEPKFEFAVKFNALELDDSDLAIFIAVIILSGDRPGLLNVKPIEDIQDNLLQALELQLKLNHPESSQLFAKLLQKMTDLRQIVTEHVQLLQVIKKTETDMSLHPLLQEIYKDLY
Summary of the method: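 His-tagged PPARγ (or controls) was preincubated with compound for 20 minutes at room temperature, then 5 nM anti-His terbium antibody and 200 nM FITC-labeled SMRT-ID2 corepressor peptide (final) were added for a further hour. TR-FRET signal was normalized to percent response using 500 nM T0070907 and DMSO controls.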

[2] = system: UM-UC-9 engineered cells; test: Cell proliferation / short-term viability assay, CellTiter-Glo 144 h; assay type: cell-based, human; conditions: read-out: CTGlo 144 h UMUC9.5, G150
Summary of the method: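 UM-UC-9 engineered assay-ready cells seeded at 500 cells/well in high-glucose DMEM/10% FBS, treated from dose-response plates, grown at 37° C, 5% CO2. CellTiter-Glo 2.0 luminescence read on day 7, with a day-0 pretreatment plate as T0 reference and DMSO wells as negative control.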

Structure (SMILES)	AC50 [1] [nM]	IC50 [2] [nM]	IC50 ([2]; Homo sapiens, UM-UC-9, 144 h) [nM]
COc1cc(-c2cc(C(=O)N3CCC(C(=O)NCc4nccnc4C4CC4CO)CC34CC4)n[nH]2)c(F)cn1 (mixture of isomers) [Example 481, (S)-4-(5-(5-fluoro-2-methoxypyridin-4-yl)-1H-pyrazole-3-carbonyl)-N-((3-((1S,2S)-2-(hydroxymethyl)cyclopropyl)pyrazin-2-yl)methyl)-4-azaspiro[2.5]octane-7-carboxamide and (S)-4-(5-(5-fluoro-2-methoxypyridin-4-yl)-1H-pyrazole-3-carbonyl)-N-((3-((1R,2R)-2-(hydroxymethyl)cyclopropyl)pyrazin-2-yl)methyl)-4-azaspiro[2.5]octane-7-carboxamide]	129	1220	–
COc1cc(-c2cc(C(=O)N3CCC(C(=O)NC4CCN(c5ccc(C#N)cn5)C4)CC34CC4)n[nH]2)c(F)cn1 (mixture of isomers) [Example 489, (S)—N—((R)-1-(5-cyanopyridin-2-yl)pyrrolidin-3-yl)-4-(5-(5-fluoro-2-methoxypyridin-4-yl)-1H-pyrazole-3-carbonyl)-4-azaspiro[2.5]octane-7-carboxamide and (S)—N—((S)-1-(5-cyanopyridin-2-yl)pyrrolidin-3-yl)-4-(5-(5-fluoro-2-methoxypyridin-4-yl)-1H-pyrazole-3-carbonyl)-4-azaspiro[2.5]octane-7-carboxamide]	0.7	5.5	–
COc1cc(-c2cc(C(=O)N3CCC(C(=O)NC4CN(c5cnc(C)cn5)CC4(F)F)CC34CC4)n[nH]2)c(F)cn1 (mixture of isomers) [Example 490, (S)—N—((S)-4,4-difluoro-1-(5-methylpyrazin-2-yl)pyrrolidin-3-yl)-4-(5-(5-fluoro-2-methoxypyridin-4-yl)-1H-pyrazole-3-carbonyl)-4-azaspiro[2.5]octane-7-carboxamide and (S)—N—((R)-4,4-difluoro-1-(5-methylpyrazin-2-yl)pyrrolidin-3-yl)-4-(5-(5-fluoro-2-methoxypyridin-4-yl)-1H-pyrazole-3-carbonyl)-4-azaspiro[2.5]octane-7-carboxamide]	1.9	17.3	–
COc1cc(-c2cc(C(=O)N3CCC(C(=O)NC4CCCn5c(C)nnc54)CC34CC4)n[nH]2)c(F)cn1 (mixture of isomers) [Example 492, (S)-4-(5-(5-fluoro-2-methoxypyridin-4-yl)-1H-pyrazole-3-carbonyl)-N—((S)-3-methyl-5,6,7,8-tetrahydro-[1,2,4]triazolo[4,3-a]pyridin-8-yl)-4-azaspiro[2.5]octane-7-carboxamide and (S)-4-(5-(5-fluoro-2-methoxypyridin-4-yl)-1H-pyrazole-3-carbonyl)-N—((R)-3-methyl-5,6,7,8-tetrahydro-[1,2,4]triazolo[4,3-a]pyridin-8-yl)-4-azaspiro[2.5]octane-7-carboxamide]	454	> 10000	–
COc1cc(-c2cc(C(=O)N3CCC(C(=O)Nc4cnn5cc(C(C)O)ccc45)CC34CC4)n[nH]2)c(F)cn1 (mixture of isomers) [Example 495, (S)-4-(5-(5-fluoro-2-methoxypyridin-4-yl)-1H-pyrazole-3-carbonyl)-N-(6-((S)-1-hydroxyethyl)pyrazolo[1,5-a]pyridin-3-yl)-4-azaspiro[2.5]octane-7-carboxamide and (S)-4-(5-(5-fluoro-2-methoxypyridin-4-yl)-1H-pyrazole-3-carbonyl)-N-(6-((R)-1-hydroxyethyl)pyrazolo[1,5-a]pyridin-3-yl)-4-azaspiro[2.5]octane-7-carboxamide]	15.7	186	–
COc1cc(-c2cc(C(=O)N3CCC(C(=O)NC4CCC(C(F)(F)F)C(O)C4)CC34CC4)n[nH]2)c(F)cn1 (mixture of isomers) [Example 501, (S)-4-(5-(5-fluoro-2-methoxypyridin-4-yl)-1H-pyrazole-3-carbonyl)-N-((1R,3R,4S)-3-hydroxy-4-(trifluoromethyl)cyclohexyl)-4-azaspiro[2.5]octane-7-carboxamide and (S)-4-(5-(5-fluoro-2-methoxypyridin-4-yl)-1H-pyrazole-3-carbonyl)-N-((1S,3S,4R)-3-hydroxy-4-(trifluoromethyl)cyclohexyl)-4-azaspiro[2.5]octane-7-carboxamide]	5.4	13	–
COc1cc(-c2cc(C(=O)N3CCC(C(=O)NC4CCCn5cc(C(F)(F)F)nc54)CC34CC4)n[nH]2)c(F)cn1 (mixture of isomers) [Example 502, (S)-4-(5-(5-fluoro-2-methoxypyridin-4-yl)-1H-pyrazole-3-carbonyl)-N—((S)-2-(trifluoromethyl)-5,6,7,8-tetrahydroimidazo[1,2-a]pyridin-8-yl)-4-azaspiro[2.5]octane-7-carboxamide and (S)-4-(5-(5-fluoro-2-methoxypyridin-4-yl)-1H-pyrazole-3-carbonyl)-N—((R)-2-(trifluoromethyl)-5,6,7,8-tetrahydroimidazo[1,2-a]pyridin-8-yl)-4-azaspiro[2.5]octane-7-carboxamide]	11.8	50.6	–
COc1cc(-c2cc(C(=O)N3CCC(C(=O)NCC4CCNCC4(F)F)CC34CC4)n[nH]2)c(F)cn1 (mixture of isomers) [Example 511, (S)—N—(((S)-3,3-difluoropiperidin-4-yl)methyl)-4-(5-(5-fluoro-2-methoxypyridin-4-yl)-1H-pyrazole-3-carbonyl)-4-azaspiro[2.5]octane-7-carboxamide and (S)—N—(((R)-3,3-difluoropiperidin-4-yl)methyl)-4-(5-(5-fluoro-2-methoxypyridin-4-yl)-1H-pyrazole-3-carbonyl)-4-azaspiro[2.5]octane-7-carboxamide]	10.6	95.2	–
COc1cc(-c2cc(C(=O)N3CCC(C(=O)Nc4cnn5c4CC(O)CC5)CC34CC4)n[nH]2)c(F)cn1 (mixture of isomers) [Example 514, (S)-4-(5-(5-fluoro-2-methoxypyridin-4-yl)-1H-pyrazole-3-carbonyl)-N—((S)-5-hydroxy-4,5,6,7-tetrahydropyrazolo[1,5-a]pyridin-3-yl)-4-azaspiro[2.5]octane-7-carboxamide and (S)-4-(5-(5-fluoro-2-methoxypyridin-4-yl)-1H-pyrazole-3-carbonyl)-N—((R)-5-hydroxy-4,5,6,7-tetrahydropyrazolo[1,5-a]pyridin-3-yl)-4-azaspiro[2.5]octane-7-carboxamide]	33.7	> 10000	–
COc1cc(-c2cc(C(=O)N3CCC(C(=O)NC45CC(CO)(C4)OC5C)CC34CC4)n[nH]2)c(F)cn1 (mixture of isomers) [Example 518, (S)-4-(5-(5-fluoro-2-methoxypyridin-4-yl)-1H-pyrazole-3-carbonyl)-N—((R)-1-(hydroxymethyl)-3-methyl-2-oxabicyclo[2.1.1]hexan-4-yl)-4-azaspiro[2.5]octane-7-carboxamide and (S)-4-(5-(5-fluoro-2-methoxypyridin-4-yl)-1H-pyrazole-3-carbonyl)-N—((S)-1-(hydroxymethyl)-3-methyl-2-oxabicyclo[2.1.1]hexan-4-yl)-4-azaspiro[2.5]octane-7-carboxamide]	149	4050	–
COc1cc(-c2cc(C(=O)N3CCC(C(=O)NC4CCCC(O)(C(F)(F)F)C4)CC34CC4)n[nH]2)c(F)cn1 (mixture of isomers) [Example 524]	128	341	–
CCC1CCC(NC(=O)C2CCN(C(=O)c3cc(-c4ccnc(OC)c4)[nH]n3)CC2)CC1 (racemic) [Example 108, N-(4-ethylcyclohexyl)-1-(5-(2-methoxypyridin-4-yl)-1H-pyrazole-3-carbonyl)piperidine-4-carboxamide]	178	–	830
COc1cc(-c2cc(C(=O)N3CCC(C(=O)NC4COCc5ccccc54)CC3)n[nH]2)c(Cl)cn1 (racemic) [Example 132, 1-(5-(5-chloro-2-methoxypyridin-4-yl)-1H-pyrazole-3-carbonyl)-N-(isochroman-4-yl)piperidine-4-carboxamide]	24.6	–	136
COc1cc(-c2cc(C(=O)N3CCC(C(=O)NCC4CC(C)(C)O4)CC3)n[nH]2)c(Cl)cn1 (racemic) [Example 135, 1-(5-(5-chloro-2-methoxypyridin-4-yl)-1H-pyrazole-3-carbonyl)-N-((4,4-dimethyloxetan-2-yl)methyl)piperidine-4-carboxamide]	483	–	2650
COc1cc(-c2cc(C(=O)N3CCC(C(=O)NC4CCC(F)(F)C4)CC3)n[nH]2)c(Cl)cn1 (racemic) [Example 175, 1-(5-(5-chloro-2-methoxypyridin-4-yl)-1H-pyrazole-3-carbonyl)-N-(3,3-difluorocyclopentyl)piperidine-4-carboxamide]	349	–	1640
COc1cc(-c2cc(C(=O)N3CCC(C(=O)NCC4COC(C)(C)O4)CC3)n[nH]2)c(Cl)cn1 (racemic) [Example 185, 1-(5-(5-chloro-2-methoxypyridin-4-yl)-1H-pyrazole-3-carbonyl)-N-((2,2-dimethyl-1,3-dioxolan-4-yl)methyl)piperidine-4-carboxamide]	735	–	1550
